# Tested on: APP/PS1 mice
# Assay: Imaris-based morphology of microglia (Supplementary Fig 5b; Additional Fig 2)
# Format: in vivo, mouse
# Experimental: Thioflavin S (Sigma-Aldrich) staining was carried out according to previously described procedures. We used 6E10 (mouse, 1:100, Signet, SIG39300), anti-20G10 (mouse, 1:1000, provided by D. R. Howlett, GlaxoSmithKline, Harlow, Essex, UK) for Aβ42, anti-G30 (rabbit, 1:1000, provided by D. R. Howlett) for Aβ40, SMA (mouse, 1:400, Sigma-Aldrich, A2547), AT8 (mouse, 1:500, Thermo Fisher Scientific, MN1020), Caspase-3 (mouse, 1:200, Novus Biologicals, NB100-56708), ac-S565 (rabbit, 1:100), COX2 (mouse, 1:250, Thermo Fisher Scientific, 35-8200), Iba1 (rabbit, 1:500, Wako, 019-19941 and goat, Abcam, ab5076), NeuN (mouse, 1:500, Millipore, MAB177), GFAP (rabbit, 1:500, Dako, N1506 and chicken, 1:500, Abcam, ab4674), and Lamp1 (mouse, 1:200, Abcam, ab24170). The sections were analyzed with a laser-scanning confocal microscope (FV3000; Olympus) or with a BX51 microscope (Olympus). MetaMorph software (Molecular Devices) was used to quantification. Three-dimensional reconstruction of microglia was recorded and analyzed using IMARIS software (Bitplane)[11]. For the analysis of age-dependent microglial COX2^+ CX3CR1^+ cells in WT and APP/PS1 mice, COX2 (rabbit, 1:100, Abcam, ab15191) and CX3CR1 (mouse, 1:100, BioLegend, 149008) antibody were used and the images were acquired on Alexa 488 and APC Channel with performed using Operetta CLS and Analysis Software 4.5 (Perkin-Elmer). […]
structure (smiles),measurement,setting,value
"CCCCCCCCCCCCC/C=C/[C@@H](O)[C@H](CO)NC(C)=O [N-AS, N-((2S,3R,E)-1,3-Dihydroxyoctadec-4-en-2-yl)acetamide]",morphology of non-plaque-associated microglia,"APP/PS1 vs N-AS-treated APP/PS1, Additional Fig. 2 of peer review file",did not differ between the groups
same,morphology of microglia surrounding Aβ,N-AS vs vehicle APP/PS1,phagocytic morphology (ameboid microglial morphology) was more evident
